# Experimental data: the supplement of paper PMC11061612
# Columns and labels:
# Test in all cases: combination Emax (second highest fraction inhibited in the dose matrix, 72 h); higher = more inhibition; extreme values may be limits of the assay
# [1] = tested on: EW-24 (Ewing's Sarcoma)
# How it was run: (§1)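 After 24 hours at 37°C and 5% CO2 in 1536-well plates, cells in DMEM/F12 or RPMI plus 10% FBS received two-drug dose matrices for 72 hours. Viability came from CellTiter-Glo 2.0 luminescence and was scaled as inhibition, anchored at 0 by vehicle wells and at 1 by blank wells. Combination Emax is taken as the second-highest inhibition in the matrix, and Bliss excess as the observed combination effect less EA + EB − EA·EB, with EA and EB the single-agent effects.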
# [2] = tested on: Hs-766T (Pancreatic Carcinoma)
# How it was run: as §1
# [3] = tested on: OSC-20 (Oral Cavity Carcinoma)
# How it was run: as §1
# [4] = tested on: Ca9-22 (Head and Neck Carcinoma)
# How it was run: as §1
# [5] = tested on: HOP-62 (Lung Adenocarcinoma)
# How it was run: as §1
# [6] = tested on: TE-1 (Esophageal Squamous Cell Carcinoma)
# How it was run: as §1
# [7] = tested on: KYSE-450 (Esophageal Squamous Cell Carcinoma)
# How it was run: as §1
# [8] = tested on: ACHN (Kidney Carcinoma)
# How it was run: as §1
# [9] = tested on: NCI-H358 (Lung Adenocarcinoma)
# How it was run: as §1
# [10] = tested on: SW13 (Other Solid Carcinomas)
# How it was run: as §1
# [11] = tested on: TGW (Neuroblastoma)
# How it was run: as §1
# [12] = tested on: NEC8 (Other Solid Carcinomas)
# How it was run: as §1
# [13] = tested on: EFM-19 (Breast Carcinoma)
# How it was run: as §1
# [14] = tested on: SCC-15 (Oral Cavity Carcinoma)
# How it was run: as §1
# [15] = tested on: LU-65 (Non-Small Cell Lung Carcinoma)
# How it was run: as §1
# [16] = tested on: C-4-I (Cervical Carcinoma)
# How it was run: as §1
# [17] = tested on: TK10 (Kidney Carcinoma)
# How it was run: as §1
# [18] = tested on: HSC-4 (Oral Cavity Carcinoma)
# How it was run: as §1
# [19] = tested on: SU8686 (Pancreatic Carcinoma)
# How it was run: as §1
# [20] = tested on: OE19 (Esophageal Adenocarcinoma)
# How it was run: as §1
SMILES,combination Emax [1],combination Emax [2],combination Emax [3],combination Emax [4],combination Emax [5],combination Emax [6],combination Emax [7],combination Emax [8],combination Emax [9],combination Emax [10],combination Emax [11],combination Emax [12],combination Emax [13],combination Emax [14],combination Emax [15],combination Emax [16],combination Emax [17],combination Emax [18],combination Emax [19],combination Emax [20]
"C=CCn1c(=O)c2cnc(Nc3ccc(N4CCN(C)CC4)cc3)nc2n1-c1cccc(C(C)(C)O)n1 [AZD1775] + C1CN(CCC1(C(=O)N[C@@H](CCO)C2=CC=C(C=C2)Cl)N)C3=NC=NC4=C3C=CN4 [Capivasertib] (first compound max 3 µM, partner max 3 µM)",0.503,0.325,0.619,0.921,0.428,0.732,0.843,0.825,0.663,0.586,0.889,0.985,0.71,0.676,0.815,0.97,0.503,0.629,0.202,0.717
"C=CCn1c(=O)c2cnc(Nc3ccc(N4CCN(C)CC4)cc3)nc2n1-c1cccc(C(C)(C)O)n1 [AZD1775] + C[C@@H]1COCCN1C2=NC(=NC(=C2)C3(CC3)[S@](=N)(=O)C)C4=C5C=CNC5=NC=C4 [AZD6738] (first compound max 1 µM, partner max 10 µM)",0.652,0.643,0.401,0.957,0.668,0.654,0.946,0.964,0.732,0.636,0.97,0.932,0.672,0.517,0.884,0.93,0.698,0.662,0.384,0.918
"COc1nnc2ccc(N3CCC(c4ccc(OCCN5CCN(C)C(=O)[C@H]5C)cc4)CC3)nn12 [AZD5153] + CC1(C)CCC(CN2CCN(c3ccc(C(=O)NS(=O)(=O)c4ccc(NCC5CCOCC5)c([N+](=O)[O-])c4)c(Oc4cnc5[nH]ccc5c4)c3)CC2)=C(c2ccc(Cl)cc2)C1 [Venetoclax] (first compound max 1 µM, 7x7, partner max 1 µM)",0.498,0.444,0.129,0.66,0.557,0.4,0.332,0.535,0.345,0.384,0.798,0.831,0.359,0.335,0.458,0.514,0.594,0.0567,0.0794,0.494
"C=CCn1c(=O)c2cnc(Nc3ccc(N4CCN(C)CC4)cc3)nc2n1-c1cccc(C(C)(C)O)n1 [AZD1775] + O=C(c1cc(Cc2n[nH]c(=O)c3ccccc23)ccc1F)N1CCN(C(=O)C2CC2)CC1 [Olaparib] (first compound max 1 µM, partner max 10 µM)",0.433,0.473,0.289,0.88,0.274,0.552,0.687,0.907,0.447,0.259,0.821,0.284,0.639,0.284,0.609,0.792,0.455,0.461,0.182,0.301
"COc1nnc2ccc(N3CCC(c4ccc(OCCN5CCN(C)C(=O)[C@H]5C)cc4)CC3)nn12 [AZD5153] + Cn1cnc2c(F)c(Nc3ccc(Br)cc3Cl)c(C(=O)NOCCO)cc21 [Selumetinib] (first compound max 1 µM, 7x7, partner max 10 µM)",0.444,0.589,0.23,0.699,0.668,0.601,0.429,0.634,0.589,0.593,0.602,0.929,0.28,0.584,0.789,0.883,0.604,0.423,0.241,0.631
"CC1(C)CCC(CN2CCN(c3ccc(C(=O)NS(=O)(=O)c4ccc(NCC5CCOCC5)c([N+](=O)[O-])c4)c(Oc4cnc5[nH]ccc5c4)c3)CC2)=C(c2ccc(Cl)cc2)C1 [Venetoclax] + COc1cc(Nc2ncc3c(n2)-c2ccc(Cl)cc2C(c2c(F)cccc2OC)=NC3)ccc1C(=O)O [Alisertib] (first compound max 1 µM, 7x7, partner max 10 µM)",0.428,0.393,0.345,0.706,0.456,0.635,0.437,0.698,0.442,0.599,0.972,0.183,0.557,0.378,0.314,0.804,0.35,0.28,0.117,0.785
"NC1(C(=O)N[C@@H](CCO)c2ccc(Cl)cc2)CCN(c2ncnc3[nH]ccc23)CC1 [Capivasertib] + C[C@@H]1COCCN1C2=NC(=NC(=C2)C3(CC3)[S@](=N)(=O)C)C4=C5C=CNC5=NC=C4 [AZD6738] (first compound max 10 µM, 7x7, partner max 10 µM)",0.786,0.437,0.431,0.872,0.652,0.449,0.452,0.856,0.554,0.712,0.614,0.799,0.526,0.601,0.632,0.913,0.605,0.73,0.166,0.698
"Cc1c2c(nn1C)CSCc1cc(n(C)n1)CSc1cc(c3ccccc3c1)OCCCc1c(C(=O)O)n(C)c3c-2c(Cl)ccc13 [AZD5991] + CCN(CCO)CCCOc1ccc2c(Nc3cc(CC(=O)Nc4cccc(F)c4)[nH]n3)ncnc2c1 [AZD2811] (first compound max 1 µM, 7x7, partner max 1 µM)",0.383,0.346,0.438,0.465,0.446,0.676,0.54,0.27,0.403,0.964,0.402,0.33,0.783,0.307,0.343,1,0.228,0.404,0.172,0.937
"COc1nnc2ccc(N3CCC(c4ccc(OCCN5CCN(C)C(=O)[C@H]5C)cc4)CC3)nn12 [AZD5153] + C=CCn1c(=O)c2cnc(Nc3ccc(N4CCN(C)CC4)cc3)nc2n1-c1cccc(C(C)(C)O)n1 [AZD1775] (first compound max 1 µM, partner max 1 µM)",0.609,0.448,0.284,0.672,0.631,0.591,0.519,0.835,0.63,0.561,0.674,0.913,0.573,0.435,0.799,0.838,0.604,0.397,0.171,0.539
"COc1cccc(OCCCN)c1-c1cc(Nc2cnc(C#N)cn2)n[nH]1 [Prexasertib] + C[C@@H]1COCCN1C2=NC(=NC(=C2)C3(CC3)[S@](=N)(=O)C)C4=C5C=CNC5=NC=C4 [AZD6738] (first compound max 1 µM, 7x7, partner max 10 µM)",0.645,0.658,0.575,0.991,0.648,0.641,0.651,0.928,0.825,0.519,0.968,0.983,0.26,0.663,0.795,0.965,0.686,0.666,0.531,0.935
"CCN(CCO)CCCOc1ccc2c(Nc3cc(CC(=O)Nc4cccc(F)c4)[nH]n3)ncnc2c1 [AZD2811] + C[C@@H]1COCCN1C2=NC(=NC(=C2)C3(CC3)[S@](=N)(=O)C)C4=C5C=CNC5=NC=C4 [AZD6738] (first compound max 1 µM, 7x7, partner max 10 µM)",0.567,0.547,0.449,0.903,0.436,0.449,0.63,0.905,0.55,0.537,0.706,0.649,0.355,0.437,0.668,0.841,0.602,0.677,0.248,0.864
"CN(C)CCCOc1ccc(-c2ccc3ncc4c(c3c2)n(C2CCOCC2)c(=O)n4C)cn1 [AZD0156] + CCN(CCO)CCCOc1ccc2c(Nc3cc(CC(=O)Nc4cccc(F)c4)[nH]n3)ncnc2c1 [AZD2811] (first compound max 1 µM, 7x7, partner max 1 µM)",0.302,0.0844,0.353,0.127,0.0853,0.254,0.193,0.135,0.157,0.407,0.356,0.146,0.383,0.201,0.281,0.147,0.166,0.0498,0.0439,0.722
"CN(C)CCCOc1ccc(-c2ccc3ncc4c(c3c2)n(C2CCOCC2)c(=O)n4C)cn1 [AZD0156] + C=CCn1c(=O)c2cnc(Nc3ccc(N4CCN(C)CC4)cc3)nc2n1-c1cccc(C(C)(C)O)n1 [AZD1775] (first compound max 1 µM, partner max 1 µM)",0.279,0.43,0.233,0.721,0.266,0.627,0.583,0.933,0.472,0.147,0.769,0.336,0.607,0.308,0.639,0.755,0.353,0.389,0.208,0.427
